Measured values published in patent US8440710B2, “HSL inhibitors useful in the treatment of diabetes” (Hoffmann-La Roche Inc., priority 2009, dated 2013).
pIC50: −log10 of the molar value.

Target: T1, human HSL (Homo sapiens, UniProt Q05469)
T1 construct: generate a full length human HSL ORF with a 3′-His6 tag; made in house; host or cells: High 5 insect cells (baculovirus, pFast-BAC)
T1 sequence (Q05469 1-1076): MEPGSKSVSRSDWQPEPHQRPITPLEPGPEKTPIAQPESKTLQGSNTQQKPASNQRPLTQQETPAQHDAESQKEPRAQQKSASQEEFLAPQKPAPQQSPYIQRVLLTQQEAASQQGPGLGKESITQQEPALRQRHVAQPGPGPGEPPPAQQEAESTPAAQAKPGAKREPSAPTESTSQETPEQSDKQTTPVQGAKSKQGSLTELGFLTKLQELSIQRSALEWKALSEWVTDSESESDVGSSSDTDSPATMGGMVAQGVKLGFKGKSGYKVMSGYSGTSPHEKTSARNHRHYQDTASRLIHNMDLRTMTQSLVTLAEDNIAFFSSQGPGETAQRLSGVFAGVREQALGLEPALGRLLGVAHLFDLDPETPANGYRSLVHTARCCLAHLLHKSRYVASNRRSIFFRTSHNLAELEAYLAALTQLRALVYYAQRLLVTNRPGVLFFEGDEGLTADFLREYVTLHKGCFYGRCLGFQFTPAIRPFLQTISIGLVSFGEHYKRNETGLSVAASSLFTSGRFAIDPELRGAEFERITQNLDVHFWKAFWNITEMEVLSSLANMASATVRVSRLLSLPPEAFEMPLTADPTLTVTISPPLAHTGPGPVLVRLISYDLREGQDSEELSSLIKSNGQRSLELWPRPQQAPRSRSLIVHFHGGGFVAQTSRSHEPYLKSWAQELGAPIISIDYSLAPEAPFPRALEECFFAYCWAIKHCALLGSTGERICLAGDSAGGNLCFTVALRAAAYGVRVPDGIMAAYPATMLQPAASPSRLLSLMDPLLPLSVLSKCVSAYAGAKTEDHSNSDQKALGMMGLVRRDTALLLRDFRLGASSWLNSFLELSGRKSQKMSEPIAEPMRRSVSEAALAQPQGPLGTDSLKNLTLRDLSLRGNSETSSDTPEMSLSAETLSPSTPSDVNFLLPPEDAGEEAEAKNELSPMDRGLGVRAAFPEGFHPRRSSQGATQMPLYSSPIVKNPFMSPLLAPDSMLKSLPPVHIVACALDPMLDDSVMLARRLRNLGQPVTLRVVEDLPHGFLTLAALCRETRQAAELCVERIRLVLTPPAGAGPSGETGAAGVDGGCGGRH
Assay: Human Hormone-Sensitive Lipase (HSL) enzyme inhibition assay (colorimetric, DMPT substrate)
Assay type: biochemical
Conditions: human full length HSL-His6, 2,3-dimercapto-1-propanol tributyrate substrate, 37° C. 20 minutes, absorbance at 405 nm; read-out: HSL hum IC50
Summary of the method: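 Full-length human HSL with C-terminal His6, expressed in baculovirus-infected High 5 cells and Ni-NTA purified, was added (15 ug/ml stock) to 1.5 mM DMPT in 100 mM MOPS pH 7.2, 0.2 mg/ml fatty acid-free BSA containing compound. After 20 min at 37 °C, DTNB with SDS/Triton X-100 was added; A405 read after 15 min at RT.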

SMILES	pIC50
COCC#C[C@]1(O)CC[C@]2(CCN(c3ccc(CC(F)(F)F)cc3)C2=O)CC1 [Example 92, (5α,8α)-8-Hydroxy-8-(3-methoxy-prop-1-ynyl)-2-[4-(2,2,2-trifluoro-ethyl)-phenyl]-2-aza-spiro[4.5]decan-1-one]	7.52
COCCC[C@]1(O)CC[C@]2(CCN(c3ccc(CC(F)(F)F)cc3)C2=O)CC1 [Example 93, (5α,8α)-8-Hydroxy-8-(3-methoxy-propyl)-2-[4-(2,2,2-trifluoro-ethyl)-phenyl]-2-aza-spiro[4.5]decan-1-one]	7.70
CCC[C@]1(O)CC[C@]2(CCN(c3ccc(OCCCOC)cc3)C2=O)CC1 [Example 94, (5α,8α)-8-Hydroxy-2-[4-(3-methoxy-propoxy)-phenyl]-8-propyl-2-aza-spiro[4.5]decan-1-one]	7.10
CCC[C@]1(O)CC[C@]2(CCN(c3ccc(OCCOC)cc3)C2=O)CC1 [Example 95, (5α,8α)-8-Hydroxy-2-[4-(2-methoxy-ethoxy)-phenyl]-8-propyl-2-aza-spiro[4.5]decan-1-one]	6.62
CCCC[C@]1(O)CC[C@]2(CCN(c3ccc(OCCOC)cc3)C2=O)CC1 [Example 96, (5α,8α)-8-Butyl-8-hydroxy-2-[4-(2-methoxy-ethoxy)-phenyl]-2-aza-spiro[4.5]decan-1-one]	7.22
CCCC[C@]1(O)CC[C@@]2(CCN(c3ccc(OCCOC)cc3)C2=O)CC1 [Example 97, (5α,8β)-8-Butyl-8-hydroxy-2-[4-(2-methoxy-ethoxy)-phenyl]-2-aza-spiro[4.5]decan-1-one]	5.74
O=C1N(c2ccc(OCCC(F)(F)F)cc2)CC[C@]12CC[C@@H](O)CC2 [Example 98, (5α,8β)-8-Hydroxy-2-[4-(3,3,3-trifluoro-propoxy)-phenyl]-2-aza-spiro[4.5]decan-1-one]	5.60
CCC[C@]1(O)CC[C@]2(CCN(c3ccc(OCCC(F)(F)F)cc3)C2=O)CC1 [Example 99, (5α,8α)-8-Hydroxy-8-propyl-2-[4-(3,3,3-trifluoro-propoxy)-phenyl]-2-aza-spiro[4.5]decan-1-one]	7.52
CCC[C@]1(O)CC[C@@]2(CCN(c3ccc(OCCC(F)(F)F)cc3)C2=O)CC1 [Example 100, (5α,8β)-8-Hydroxy-8-propyl-2-[4-(3,3,3-trifluoro-propoxy)-phenyl]-2-aza-spiro[4.5]decan-1-one]	6.44
CCC[C@]1(O)CC[C@]2(CCN(c3ccc(C(C)C)nc3)C2=O)CC1 [Example 101, (5α,8α)-8-Hydroxy-2-(6-isopropylpyridin-3-yl)-8-propyl-2-aza-spiro[4.5]decan-1-one]	6.96
CC(C)c1ccc(N2CC[C@]3(CC[C@@](O)(C(C)C)CC3)C2=O)cn1 [Example 102, (5α,8α)-8-Hydroxy-8-isopropyl-2-(6-isopropylpyridin-3-yl)-2-aza-spiro[4.5]decan-1-one]	7.00
CC(C)[C@]1(O)CC[C@]2(CCN(c3ccc(OCC(F)(F)F)cc3)C2=O)CC1 [Example 103, (5α,8α)-8-Hydroxy-8-isopropyl-2-[4-(2,2,2-trifluoro-ethoxy)-phenyl]-2-aza-spiro[4.5]decan-1-one]	7.70
CCC[C@]1(O)CC[C@]2(CCN(c3ccc(OCC(F)(F)F)cc3)C2=O)CC1 [Example 104, 8-Hydroxy-8-propyl-2-[4-(2,2,2-trifluoro-ethoxy)-phenyl]-2-aza-spiro[4.5]decan-1-one]	7.70
C=C(C)[C@]1(O)CC[C@]2(CCN(c3ccc(OCC(F)(F)F)cc3)C2=O)CC1 [Example 105, (5α,8α)-8-Hydroxy-8-(prop-1-en-2-yl)-2-(4-(2,2,2-trifluoroethoxy)phenyl)-2-aza-spiro[4.5]decan-1-one]	7.52
C=C(C)[C@]1(O)CC[C@@]2(CCN(c3ccc(OCC(F)(F)F)cc3)C2=O)CC1 [Example 106, (5α,8β)-8-Hydroxy-8-(prop-1-en-2-yl)-2-(4-(2,2,2-trifluoroethoxy)phenyl)-2-aza-spiro[4.5]decan-1-one]	5.87
CC(C)[C@]1(O)CC[C@@]2(CCN(c3ccc(OCC(F)(F)F)cc3)C2=O)CC1 [Example 107, (5α,8β)-8-Hydroxy-8-isopropyl-2-(4-(2,2,2-trifluoroethoxy)phenyl)-2-aza-spiro[4.5]decan-1-one]	5.69
CC(C)[C@]1(O)CC[C@]2(CCN(c3ccc(OCC(F)(F)F)nc3)C2=O)CC1 [Example 108, (5α,8α)-8-Hydroxy-8-isopropyl-2-(6-(2,2,2-trifluoroethoxy)pyridin-3-yl)-2-aza-spiro[4.5]decan-1-one]	7.70
CC(C)[C@]1(O)CC[C@@]2(CCN(c3ccc(OCC(F)(F)F)nc3)C2=O)CC1 [Example 109, (5α,8β)-8-Hydroxy-8-isopropyl-2-(6-(2,2,2-trifluoroethoxy)pyridin-3-yl)-2-aza-spiro[4.5]decan-1-one]	5.65
COC[C@]1(O)CC[C@]2(CCN(c3ccc(OCC(F)(F)F)nc3)C2=O)CC1 [Example 110, (5α,8α)-8-Hydroxy-8-(methoxymethyl)-2-(6-(2,2,2-trifluoroethoxy)pyridin-3-yl)-2-aza-spiro[4.5]decan-1-one]	6.72
CC#C[C@]1(O)CC[C@]2(CCN(c3ccc(OCC(F)(F)F)cc3)C2=O)CC1 [Example 111, (5α,8α)-8-Hydroxy-8-prop-1-ynyl-2-[4-(2,2,2-trifluoro-ethoxy)phenyl]-2-aza-spiro[4.5]decan-1-one]	7.00
O=C1N(c2ccc(OC(F)(F)F)cc2)CC[C@]12CC[C@@](O)(C(F)(F)F)CC2 [Example 112, (5α,8α)-8-Hydroxy-2-(4-trifluoromethoxy-phenyl)-8-trifluoromethyl-2-aza-spiro[4.5]decan-1-one]	7.70
O=C1N(c2ccc(OC(F)(F)F)cc2)CC[C@]12CC[C@](O)(C(F)(F)F)CC2 [Example 113, (5α,8β)-8-Hydroxy-2-(4-trifluoromethoxy-phenyl)-8-trifluoromethyl-2-aza-spiro[4.5]decan-1-one]	5.66
COC[C@]1(O)CC[C@]2(CCN(c3ccc(OC(F)(F)F)cc3)C2=O)CC1 [Example 114, (5α,8α)-8-Hydroxy-8-methoxymethyl-2-(4-trifluoromethoxy-phenyl)-2-aza-spiro[4.5]decan-1-one]	7.52
COC[C@]1(O)CC[C@@]2(CCN(c3ccc(OC(F)(F)F)cc3)C2=O)CC1 [Example 115, (5α,8β)-8-Hydroxy-8-methoxymethyl-2-(4-trifluoromethoxy-phenyl)-2-aza-spiro[4.5]decan-1-one]	6.17
CCOC(=O)C[C@]1(O)CC[C@]2(CCN(c3ccc(OC(F)(F)F)cc3)C2=O)CC1 [Example 116, [(5α,8α)-8-Hydroxy-1-oxo-2-(4-trifluoromethoxy-phenyl)-2-aza-spiro[4.5]dec-8-yl]-acetic acid ethyl ester]	8.00
CCOC[C@]1(O)CC[C@]2(CCN(c3ccc(OC(F)(F)F)cc3)C2=O)CC1 [Example 117, (5α,8α)-8-Ethoxymethyl-8-hydroxy-2-(4-trifluoromethoxy-phenyl)-2-aza-spiro[4.5]decan-1-one]	7.70
O=C1N(c2ccc(OC(F)(F)F)cc2)CC[C@]12CC[C@@](O)(CCO)CC2 [Example 118, (5α,8α)-8-Hydroxy-8-(2-hydroxy-ethyl)-2-(4-trifluoromethoxy-phenyl)-2-aza-spiro[4.5]decan-1-one]	7.00
COCC[C@]1(O)CC[C@]2(CCN(c3ccc(OC(F)(F)F)cc3)C2=O)CC1 [Example 119, (5α,8α)-8-Hydroxy-8-(2-methoxy-ethyl)-2-(4-trifluoromethoxy-phenyl)-2-aza-spiro[4.5]decan-1-one]	7.52
COCC[C@]1(OC)CC[C@]2(CCN(c3ccc(OC(F)(F)F)cc3)C2=O)CC1 [Example 120, (5α,8α)-8-Methoxy-8-(2-methoxy-ethyl)-2-(4-trifluoromethoxy-phenyl)-2-aza-spiro[4.5]decan-1-one]	7.00
COC[C@]1(O)CC[C@]2(CCN(c3ccc(C(F)(F)F)cc3)C2=O)CC1 [Example 121, (5α,8α)-8-Hydroxy-8-methoxymethyl-2-(4-trifluoromethyl-phenyl)-2-aza-spiro[4.5]decan-1-one]	7.00
